pEC50: −log10 of the molar value. Like-named read-outs stand apart in the source and are kept apart here.
System: M. tuberculosis H37Rv_DdnL49P_gfp
Assay type: cell-based, Mycobacterium tuberculosis
[1] = read-out: EC50 H37Rv_DdnL49P_gfp
[2] = in combination with pretomanid, unit inferred, read-out: average EC50 H37Rv_DdnL49P_gfp

Row | Compound | pEC50 [1] | pEC50 [2]
1 | O=C(Nc1nc2ccc(Nc3ccc(OC(F)(F)F)cn3)cc2s1)[C@@H]1C2C=CC(C2)[C@@H]1C(=O)O (stereo partly shown) [Example 93, 3-[[6-[[5-(trifluoromethoxy)-2-pyridyl]amino]-1,3-benzothiazol-2-yl]carbamoyl]bicyclo[2.2.1]hept-5-ene-2-carboxylic acid] | > 6.00 | 
2 | O=C(O)C1C2C=CC(C2)[C@H]1C(=O)Nc1nc2ccc(-c3ccc(C(F)(F)F)nc3)cc2s1 (stereo partly shown) [Example 66, 3-[[6-[6-(trifluoromethyl)-3-pyridyl]-1,3-benzothiazol-2-yl]carbamoyl]bicyclo [2.2.1]hept-5-ene-2-carboxylic acid] | 5.30 to 6.00 | 
3 | O=C(Nc1nc2ccc(-c3ccc(C(F)(F)F)cc3)cc2s1)[C@@H]1C2C=CC(C2)[C@@H]1C(=O)O (stereo partly shown) [Example 60, 3-[[6-[4-(trifluoromethyl)phenyl]-1,3-benzothiazol-2-yl]carbamoyl]bicyclo[2.2.1]hept-5-ene-2-carboxylic acid] | > 6.00 | 6.32
4 | Cc1cccc2sc(NC(=O)[C@@H]3C4C=CC(C4)[C@@H]3C(=O)O)nc12 (stereo partly shown) [Example 16, 3-[(4-methyl-1,3-benzothiazol-2-yl)carbamoyl]bicyclo[2.2.1]hept-5-ene-2-carboxylic acid] | 5.30 to 6.00 | 
5 | O=C(Nc1nc2ccc(Nc3ccc(C(F)(F)F)cn3)cc2s1)[C@@H]1C2C=CC(C2)[C@@H]1C(=O)O (stereo partly shown) [Example 96, 3-[[6-[[5-(trifluoromethyl)-2-pyridyl]amino]-1,3-benzothiazol-2-yl]carbamoyl]bicyclo[2.2.1]hept-5-ene-2-carboxylic acid] | > 6.00 | 
6 | O=C1[C@@H]2C3C=CC(C3)[C@@H]2C(=O)N1c1nc2ccc(-c3ccc(F)nc3)cc2s1 [Example 65, (1R,2S,6R,7S)-4-[6-(6-fluoro-3-pyridyl)-1,3-benzothiazol-2-yl]-4-azatricyclo[5.2.1.02.6]dec-8-ene-3,5-dione] | 5.30 to 6.00 | 
7 | CC(C)(C)c1ccc2nc(NC(=O)[C@@H]3C4C=CC(C4)[C@@H]3C(=O)O)sc2c1 (stereo partly shown) [Example 12, 3-[(6-tert-butyl-1,3-benzothiazol-2-yl)carbamoyl]bicyclo[2.2.1]hept-5-ene-2-carboxylic acid] | > 6.00 | 
8 | O=C(Nc1nc2ccc(C(F)(F)F)cc2s1)[C@@H]1C2C=CC(C2)[C@@H]1C(=O)O (stereo partly shown) [Example 43, 3-[[6-(trifluoromethyl)-1,3-benzothiazol-2-yl]carbamoyl]bicyclo[2.2.1]hept-5-ene-2-carboxylic acid] | 5.30 to 6.00 | 
9 | O=C(Nc1nc2ccc(Nc3cccc(F)n3)cc2s1)[C@@H]1C2C=CC(C2)[C@@H]1C(=O)O (stereo partly shown) [Example 88, 3-[[6-[(6-fluoro-2-pyridyl)amino]-1,3-benzothiazol-2-yl]carbamoyl]bicyclo[2.2.1]hept-5-ene-2-carboxylic acid] | > 6.00 | 
10 | O=C(Nc1nc2ccc(-c3ccc(OC(F)(F)F)cc3)cc2s1)[C@@H]1C2C=CC(C2)[C@@H]1C(=O)O (stereo partly shown) [Example 62, 3-[[6-[4-(trifluoromethoxy)phenyl]-1,3-benzothiazol-2-yl]carbamoyl]bicyclo[2.2.1]hept-5-ene-2-carboxylic acid] | > 6.00 | 
11 | O=C(Nc1nc2ccc(Oc3ccc(C(F)(F)F)cn3)cc2s1)[C@@H]1C2C=CC(C2)[C@@H]1C(=O)O (stereo partly shown) [Example 35, 3-[[6-[[5-(trifluoromethyl)-2-pyridyl]oxy]-1,3-benzothiazol-2-yl]carbamoyl]bicyclo[2.2.1]hept-5-ene-2-carboxylic acid] | 5.30 to 6.00 | 
12 | O=C1[C@@H]2C3C=CC(C3)[C@@H]2C(=O)N1c1nc2ccc(Nc3ccc(C(F)(F)F)cn3)cc2s1 [Example 95] | > 6.00 | 
13 | O=C(Nc1nc2ccc(Cc3ccccc3)cc2s1)[C@@H]1C2C=CC(C2)[C@@H]1C(=O)O (stereo partly shown) [Example 20, 3-[(6-benzyl-1,3-benzothiazol-2-yl)carbamoyl]bicyclo[2.2.1]hept-5-ene-2-carboxylic acid] | > 6.00 | 
14 | CCOc1ccc2nc(N3C(=O)[C@@H]4[C@H](C3=O)[C@@H]3C=C[C@H]4C3)sc2c1 [Example 8, (1R,2S,6R,7S)-4-(6-ethoxy-1,3-benzothiazol-2-yl)-4-azatricyclo[5.2.1.02,6]dec-8-ene-3,5-dione] | 5.30 to 6.00 | 
15 | O=C1[C@@H]2[C@H](C(=O)N1c1nc3ccc(Oc4ncccc4C(F)(F)F)cc3s1)[C@@H]1C=C[C@H]2C1 [Example 26, (1R,2S,6R,7S)-4-[6-[[3-(trifluoromethyl)-2-pyridyl]oxy]-1,3-benzothiazol-2-yl]-4-azatricyclo[5.2.1.02,6]dec-8-ene-3,5-dione] | 5.30 to 6.00 | 
16 | COc1cc(Nc2ccc3nc(N4C(=O)[C@@H]5C6C=CC(C6)[C@@H]5C4=O)sc3c2)ccn1 [Example 92, 4-[6-[(2-methoxy-4-pyridyl)amino]-1,3-benzothiazol-2-yl]-4-azatricyclo[5.2.1.02,6]dec-8-ene-3,5-dione] | 5.30 to 6.00 | 
17 | O=C(Nc1nc2ccc(Oc3ccnc(C(F)(F)F)c3)cc2s1)[C@@H]1C2C=CC(C2)[C@@H]1C(=O)O (stereo partly shown) [Example 32, 3-[[6-[[2-(trifluoromethyl)-4-pyridyl]oxy]-1,3-benzothiazol-2-yl]carbamoyl]bicyclo[2.2.1]hept-5-ene-2-carboxylic acid] | > 6.00 | 6.49

Row | Compound | pEC50 [1] | pEC50 [2]
18 | O=C(Nc1nc2ccc(-c3ccncc3)cc2s1)[C@@H]1C2C=CC(C2)[C@@H]1C(=O)O (stereo partly shown) [Example 64, 3-[[6-(4-pyridyl)-1,3-benzothiazol-2-yl]carbamoyl]bicyclo[2.2.1]hept-5-ene-2-carboxylic acid] | 5.00 to 5.30 | 
19 | O=C1[C@@H]2C3C=CC(C3)[C@@H]2C(=O)N1c1nc2ccc(Nc3ccnc(C(F)(F)F)c3)cc2s1 [Example 90, 4-[6-[[2-(trifluoromethyl)-4-pyridyl]amino]-1,3-benzothiazol-2-yl]-4-azatricyclo[5.2.1.02,6]dec-8-ene-3,5-dione] | > 6.00 | 
20 | O=C1[C@@H]2[C@H](C(=O)N1c1nc3ccc(Oc4ccccc4)cc3s1)[C@@H]1C=C[C@H]2C1 [Example 19, (1R,2S,6R,7S)-4-(6-phenoxy-1,3-benzothiazol-2-yl)-4-azatricyclo[5.2.1.02,6]dec-8-ene-3,5-dione] | 5.30 to 6.00 | 
21 | O=C(Nc1nc2ccc(Oc3ccc(C(F)(F)F)cc3)cc2s1)[C@@H]1C2C=CC(C2)[C@@H]1C(=O)O (stereo partly shown) [Example 22, 3-[[6-[4-(trifluoromethyl)phenoxy]-1,3-benzothiazol-2-yl]carbamoyl]bicyclo[2.2.1]hept-5-ene-2-carboxylic acid] | 5.30 to 6.00 | 
22 | O=C(Nc1nc2ccc(-c3ccoc3)cc2s1)[C@@H]1C2C=CC(C2)[C@@H]1C(=O)O (stereo partly shown) [Example 69, 3-[[6-(3-furyl)-1,3-benzothiazol-2-yl]carbamoyl]bicyclo[2.2.1]hept-5-ene-2-carboxylic acid] | > 6.00 | 
23 | COc1ccc(-c2ccc3nc(NC(=O)[C@@H]4C5C=CC(C5)[C@@H]4C(=O)O)sc3c2)cc1 (stereo partly shown) [Example 54, 3-[[6-(4-methoxyphenyl)-1,3-benzothiazol-2-yl]carbamoyl]bicyclo[2.2.1]hept-5-ene-2-carboxylic acid] | > 6.00 | 6.16
24 | O=C1[C@@H]2C3C=CC(C3)[C@@H]2C(=O)N1c1nc2ccc(Nc3ccc(F)cn3)cc2s1 [Example 87, 4-[6-[(5-fluoro-2-pyridyl)amino]-1,3-benzothiazol-2-yl]-4-azatricyclo[5.2.1.02,6]dec-8-ene-3,5-dione] | > 6.00 | 
25 | O=C1[C@@H]2[C@H](C(=O)N1c1nc3ccc(-c4ccoc4)cc3s1)[C@@H]1C=C[C@H]2C1 [Example 70, (1R,2S,6R,7S)-4-[6-(3-furyl)-1,3-benzothiazol-2-yl]-4-azatricyclo[5.2.1.02,6]dec-8-ene-3,5-dione] | 5.30 to 6.00 | 
26 | O=C1[C@@H]2[C@H](C(=O)N1c1nc3ccc(-c4ccc(C(F)(F)F)cc4)cc3s1)[C@@H]1C=C[C@H]2C1 [Example 61, (1R,2S,6R,7S)-4-[6-[4-(trifluoromethyl)phenyl]-1,3-benzothiazol-2-yl]-4-azatricyclo[5.2.1.02,6]dec-8-ene-3,5-dione] | > 6.00 | 
27 | O=C(Nc1nc2ccc(F)cc2s1)[C@@H]1C2C=CC(C2)[C@@H]1C(=O)O (stereo partly shown) [Example 42, 3-[(6-fluoro-1,3-benzothiazol-2-yl)carbamoyl]bicyclo[2.2.1]hept-5-ene-2-carboxylic acid] | 5.30 to 6.00 | 
28 | O=C(Nc1nc2ccc(C#Cc3ccccc3)cc2s1)[C@@H]1C2C=CC(C2)[C@@H]1C(=O)O (stereo partly shown) [Example 77, 3-[[6-(2-phenylethynyl)-1,3-benzothiazol-2-yl]carbamoyl]bicyclo[2.2.1]hept-5-ene-2-carboxylic acid] | > 6.00 | 
29 | N#Cc1ccc2nc(NC(=O)[C@@H]3C4C=CC(C4)[C@@H]3C(=O)O)sc2c1 (stereo partly shown) [Example 40, 3-[(6-cyano-1,3-benzothiazol-2-yl)carbamoyl]bicyclo[2.2.1]hept-5-ene-2-carboxylic acid] | 5.00 to 5.30 | 
30 | Cc1ccc2sc(NC(=O)[C@@H]3C4C=CC(C4)[C@@H]3C(=O)O)nc2c1C (stereo partly shown) [Example 15, 3-[(4,5-dimethyl-1,3-benzothiazol-2-yl)carbamoyl]bicyclo[2.2.1]hept-5-ene-2-carboxylic acid] | 5.30 to 6.00 | 
31 | O=C(Nc1nc2ccc(Nc3ccc(F)cn3)cc2s1)[C@@H]1C2C=CC(C2)[C@@H]1C(=O)O (stereo partly shown) [Example 86, 3-[[6-[(5-fluoro-2-pyridyl)amino]-1,3-benzothiazol-2-yl]carbamoyl]bicyclo[2.2.1]hept-5-ene-2-carboxylic acid] | > 6.00 | 
32 | COc1cc2nc(NC(=O)[C@@H]3C4C=CC(C4)[C@@H]3C(=O)O)sc2cc1OC (stereo partly shown) [Example 9, 3-[(5,6-dimethoxy-1,3-benzothiazol-2-yl)carbamoyl]bicyclo[2.2.1]hept-5-ene-2-carboxylic acid] | 5.00 to 5.30 | 
33 | C#CCOc1ccc(-c2ccc3nc(N4C(=O)[C@@H]5[C@H](C4=O)[C@@H]4C=C[C@H]5C4)sc3c2)cc1 [Example 71, (1R,2S,6R,7S)-4-[6-(4-prop-2-ynoxyphenyl)-1,3-benzothiazol-2-yl]-4-azatricyclo[5.2.1.02,6]dec-8-ene-3,5-dione] | > 6.00 | 
34 | O=C(Nc1nc2ccc(-c3ccc4ncccc4c3)cc2s1)[C@@H]1C2C=CC(C2)[C@@H]1C(=O)O (stereo partly shown) [Example 81, 3-[[6-(6-quinolyl)-1,3-benzothiazol-2-yl]carbamoyl]bicyclo[2.2.1]hept-5-ene-2-carboxylic acid] | 5.30 to 6.00 | 

From patent publication US20250382273A1 (INSTITUT NATIONAL DE LA SANTE ET DE LA RECHERCHE MEDICALE, priority 2022, published 2025)
